Values of other authors in patent publication US9962390B2, “Mosapride sustained-release formulation providing pharmacological and clinical effects with once-daily administration” (Korea United Pharm. Inc., priority 2013, dated 2018).
Structures can show the parent of a compound that is named as a salt.

Tests used:
[1] = not given; remark: listed apart in the source

SMILES	water solubility compared with Mosapride	concentration in eyeballs relative to blood ([1]; eyeballs)	concentration relative to that in blood plasma ([1]; liver, small intestine, kidney, and adrenal glands)	absorbed in the digestive tract ([1]; orally administered)
CCOc1cc(N)c(Cl)cc1C(=O)NCC1CN(Cc2ccc(F)cc2)CCO1 (stereo not shown) [Mosapride citrate]	higher water solubility			
CCOc1cc(N)c(Cl)cc1C(=O)NCC1CN(Cc2ccc(F)cc2)CCO1 (stereo not shown) [Mosapride, 4-amino-5-chloro-2-ethoxy-N-{[4-(4-fluorobenzyl)-2-morpholinyl]methyl}benzamide]		about half the concentration in blood	at least 10 times	more than 93%
